Structures are written as SMILES.

For orientation: IC50 means the concentration at which inhibition is half-maximal.

Data set [1] has as its system C32 melanoma cells. The data set can be described thus: MTT cell viability assay, C32.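 Also: MTT added for 2 h, cells lysed in DMSO, absorbance read at 570 nm, compound vehicle kept at or below 0.1% DMSO.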 The note with it: Homo sapiens, read-out: IC50, cytotoxic activity, MTT test. For orientation: Formazan colour is commonly taken as a measure of viable cells.
For data set [2], the system named is A375 melanoma cells. Description: Neutral red uptake (NRU) assay, A375. The note with it: Homo sapiens, read-out: IC50, cytotoxic activity, NRU assay.
Experimental: (§1) The NRU (neutral red uptake) was conducted as previously described by Szoka and co-workers, with some modifications [22]. Briefly, melanoma cells and fibroblasts were seeded in microplates at the density of 1 × 10^4 cells per well and allowed to adhere for 24 h. […] After treatment, the culture medium was replaced with a neutral red solution (40 µg/mL). An additional 2 h of incubation was performed. The neutral red solution was then removed and the neutral red accumulated in the cells was dissolved in 50% EtOH with 1% of the glacial acetic acid. The absorbance was estimated at 540 nm and IC50 values were calculated using GraphPad Prism software (GraphPad Software, San Diego, CA, USA).
Data set [3] concerns A375 melanoma cells. The data set can be described thus: MTT cell viability assay, A375.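 Also: Read-out is formazan absorbance at 570 nm after 2 h with MTT, with compounds in at most 0.1% v/v DMSO.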 The note with it: Homo sapiens.
Data set [4] concerns C32 melanoma cells. The data set can be described thus: Neutral red uptake (NRU) assay, C32. The note with it: Homo sapiens.
Experimental: as §1
The nature of data set [5]: Neutral red uptake (NRU) assay, normal cells. The note with it: human, human skin fibroblasts (CCD25Sk).
Another data set is described as follows: in vitro. The note with it: human.
The nature of data set [6]: MTT cell viability assay, normal cells.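 Also: fibroblasts served as non-cancer comparison line for selectivity versus melanoma cells, MTT reduction read as absorbance at 570 nm after 2 h dye exposure, compounds in ≤0.1% DMSO.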 The note with it: human, human skin fibroblasts (CCD25Sk).
Where [7] appears, read: A-375, 24 h, read-out: IC50, cytotoxic activity, MTT test, A375, 24 h.
[8] abbreviates: A-375, 48 h, read-out: IC50, cytotoxic activity, MTT test, A375, 48 h.
The mark [9] stands for this setting: A-375, 72 h, read-out: IC50, cytotoxic activity, MTT test, A375, 72 h.
The mark [10] stands for this setting: C32, 24 h, read-out: IC50, cytotoxic activity, NRU assay, C32, 24 h.
The mark [11] stands for this setting: C32, 48 h, read-out: IC50, cytotoxic activity, NRU assay, C32, 48 h.
The mark [12] stands for this setting: C32, 72 h, read-out: IC50, cytotoxic activity, NRU assay, C32, 72 h.

With `O=c1c(O)c(-c2cc(O)c(O)c(O)c2)oc2cc(O)cc(O)c12` [Compound 30, myricetin], the half-maximal inhibitory concentration (IC50) with C32 melanoma cells [1] (C32, 24 h) is more than 200 µM; in the data set with C32 melanoma cells [1] (C32, 48 h), more than 200 µM; with C32 melanoma cells [1] (C32, 72 h), more than 200 µM; with A375 melanoma cells [2] (A-375, 24 h), more than 200 µM; with A375 melanoma cells [2] (A-375, 48 h) it was more than 200 µM; in the data set on A375 melanoma cells [2] (A-375, 72 h) it was more than 200 µM. In addition, the half-maximal inhibitory concentration (IC50) was more than 200 µM in the data set on A375 melanoma cells [3] (setting [7]); more than 200 µM in the data set with A375 melanoma cells [3] (setting [8]); 75.3 ± 4.8 µM in the data set with A375 melanoma cells [3] (setting [9]); more than 200 µM in the data set on C32 melanoma cells [4] (setting [10]); more than 200 µM with C32 melanoma cells [4] (setting [11]); more than 200 µM with C32 melanoma cells [4] (setting [12]). In addition, the half-maximal inhibitory concentration (IC50) at 24 h (in data set [5]; in “in vitro”) was more than 200 µM in each case. Also, the 50% inhibitory concentration (IC50) at 48 h (in data set [5]; in “in vitro”) was more than 200 µM throughout. For the same compound, the IC50 at 72 h (in data set [5]; in “in vitro”) was more than 200 µM each time.
`O=c1cc(-c2ccc(O)cc2)oc2c([C@@H]3O[C@H](CO)[C@@H](O)[C@H](O)[C@H]3O)c(O)cc(O)c12` [Compound 2, apigenin 8-C-glucoside]: the IC50 is more than 200 µM with C32 melanoma cells [1] (C32, 24 h); more than 200 µM in the data set on C32 melanoma cells [1] (C32, 48 h); more than 200 µM in the data set with C32 melanoma cells [1] (C32, 72 h); more than 200 µM in the data set with A375 melanoma cells [2] (A-375, 24 h); more than 200 µM with A375 melanoma cells [2] (A-375, 48 h); more than 200 µM in the data set with A375 melanoma cells [2] (A-375, 72 h). Moreover, the half-maximal inhibitory concentration (IC50) in the data set with A375 melanoma cells [3] (setting [7]), with A375 melanoma cells [3] (setting [8]), with A375 melanoma cells [3] (setting [9]), with C32 melanoma cells [4] (setting [10]), in the data set on C32 melanoma cells [4] (setting [11]) and with C32 melanoma cells [4] (setting [12]) was more than 200 µM in each case. Besides, the concentration for half-maximal inhibition (IC50) at 24 h in data set [5] and in data set [6] was more than 200 µM in each case. Besides, the IC50 at 48 h in data set [5] and in data set [6] was more than 200 µM throughout. In addition, the IC50 at 72 h in data set [5] and in data set [6] was more than 200 µM each time.
As for `C[C@@H]1O[C@@H](OC[C@H]2O[C@@H](Oc3c(-c4ccc(O)c(O)c4)oc4cc(O)cc(O)c4c3=O)[C@H](O)[C@@H](O)[C@@H]2O)[C@H](O)[C@H](O)[C@H]1O` [Compound 28, quercetin 3-O-rutinoside], the IC50 with C32 melanoma cells [1] (C32, 24 h) is more than 200 µM; in the data set with C32 melanoma cells [1] (C32, 48 h) it was more than 200 µM; in the data set with C32 melanoma cells [1] (C32, 72 h), more than 200 µM; in the data set on A375 melanoma cells [2] (A-375, 24 h), more than 200 µM; in the data set with A375 melanoma cells [2] (A-375, 48 h), more than 200 µM; with A375 melanoma cells [2] (A-375, 72 h), more than 200 µM. Further, the half-maximal inhibitory concentration (IC50) was more than 200 µM in the data set on A375 melanoma cells [3] (setting [7]); 57 ± 3.1 µM with A375 melanoma cells [3] (setting [8]); 57.8 ± 4.8 µM in the data set with A375 melanoma cells [3] (setting [9]); more than 200 µM in the data set on C32 melanoma cells [4] (setting [10]); more than 200 µM with C32 melanoma cells [4] (setting [11]); more than 200 µM in the data set with C32 melanoma cells [4] (setting [12]). Also, the IC50 at 24 h in data set [5] and in data set [6] was more than 200 µM throughout. Moreover, the IC50 at 48 h in data set [5] and in data set [6] was more than 200 µM throughout. For the same compound, the IC50 at 72 h in data set [5] and in data set [6] was more than 200 µM in each case.
For `COc1ccc(C2CC(=O)c3c(O)cc(OC4OC(CO)C(O)C(O)C4OC4OC(C)C(O)C(O)C4O)cc3O2)cc1O` (stereo not drawn) [Compound 35, hesperetin 7-O-neohesperidoside], the IC50 was more than 200 µM in the data set with C32 melanoma cells [1] (C32, 24 h); more than 200 µM with C32 melanoma cells [1] (C32, 48 h); more than 200 µM in the data set with C32 melanoma cells [1] (C32, 72 h); more than 200 µM with A375 melanoma cells [2] (A-375, 24 h); more than 200 µM in the data set with A375 melanoma cells [2] (A-375, 48 h); more than 200 µM in the data set on A375 melanoma cells [2] (A-375, 72 h). Also, the half-maximal inhibitory concentration (IC50) in the data set with A375 melanoma cells [3] (setting [7]), with A375 melanoma cells [3] (setting [8]), in the data set with A375 melanoma cells [3] (setting [9]), in the data set on C32 melanoma cells [4] (setting [10]), with C32 melanoma cells [4] (setting [11]) and in the data set on C32 melanoma cells [4] (setting [12]) was more than 200 µM each time. The 50% inhibitory concentration (IC50) at 24 h in data set [5] and in data set [6] was more than 200 µM each time. Further, the 50% inhibitory concentration (IC50) at 48 h in data set [5] and in data set [6] was more than 200 µM throughout. The IC50 at 72 h in data set [5] and in data set [6] was more than 200 µM in each case.
Take `O=c1c(O)c(-c2ccc(O)cc2)oc2cc(O)cc(O)c12` [Compound 18, kaempferol]: the 50% inhibitory concentration (IC50) in the data set with C32 melanoma cells [1] (C32, 24 h) was 100 to 200 µM; with C32 melanoma cells [1] (C32, 48 h), 100 to 200 µM; in the data set on C32 melanoma cells [1] (C32, 72 h), 58.4 ± 3.5 µM; in the data set on A375 melanoma cells [2] (A-375, 24 h) it was 100 to 200 µM; with A375 melanoma cells [2] (A-375, 48 h) it was 57.4 ± 4.6 µM; with A375 melanoma cells [2] (A-375, 72 h), 47.7 ± 3.9 µM. In addition, the half-inhibitory concentration (IC50) is 100 to 200 µM in the data set on A375 melanoma cells [3] (setting [7]); 100 to 200 µM with A375 melanoma cells [3] (setting [8]); 75.8 ± 5.8 µM with A375 melanoma cells [3] (setting [9]); more than 200 µM in the data set on C32 melanoma cells [4] (setting [10]); 62.8 ± 3.5 µM with C32 melanoma cells [4] (setting [11]); 34.4 ± 2.9 µM in the data set on C32 melanoma cells [4] (setting [12]). Moreover, the IC50 at 24 h in data set [5] is more than 200 µM; in data set [6], 100 to 200 µM. Further, the IC50 at 48 h is 69.8 ± 5.8 µM in data set [5] and 100 to 200 µM in data set [6]. In addition, the IC50 at 72 h amounted to 51.1 ± 3.2 µM in data set [5] and 55.8 ± 4.5 µM in data set [6].

(Values after publication PMC10854695, “Using Flavonoid Substitution Status to Predict Anticancer Effects in Human Melanoma Cancers: An In Vitro Study” (Cancers, 2024).)
